Experimental data taken from ChEMBL document CHEMBL5230129, “Antibacterial activities with the structure-activity relationship of coumarin derivatives” (2020).
Values after ≈ are worked out from the molar mass of the structure shown.

What was measured:
Format in all cases: functional
Staphylococcus aureus [1] = assay: Antibacterial activity against Staphylococcus aureus ATCC 25923 assessed as zone of inhibition incubated for 24 hrs by paper disk method
Escherichia coli [2] = assay: Antibacterial activity against Escherichia coli ATCC 25922 assessed as zone of inhibition incubated for 24 hrs by paper disk method
Pseudomonas aeruginosa [3] = assay: Antibacterial activity against Pseudomonas aeruginosa ATCC 27853 assessed as zone of inhibition incubated for 24 hrs by paper disk method
Escherichia coli [4] = assay: Antibacterial activity against Escherichia coli MTCC 1586 assessed as zone of inhibition incubated overnight by Kirby-Bauer disc diffusion method
Staphylococcus aureus [5] = assay: Antibacterial activity against Staphylococcus aureus MTCC 740 assessed as zone of inhibition incubated overnight by Kirby-Bauer disc diffusion method
Pseudomonas aeruginosa [6] = assay: Antibacterial activity against Pseudomonas aeruginosa assessed as zone of inhibition incubated for 24 to 48 hrs by agar well diffusion assay; conditions: time 24-48 hrs
Staphylococcus aureus [7] = assay: Antibacterial activity against Staphylococcus aureus assessed as zone of inhibition incubated for 24 to 48 hrs by agar well diffusion assay; conditions: time 24-48 hrs
Escherichia coli [8] = assay: Antibacterial activity against Escherichia coli MTCC 739 assessed as inhibition of bacterial growth incubated for 24 hrs by spectrophotometric assay
Escherichia coli [9] = assay: Antibacterial activity against Escherichia coli MTCC 40 assessed as zone of inhibition incubated for 24 hrs by well-plate method
Escherichia coli [10] = assay: Antibacterial activity against Escherichia coli MTCC 40 assessed as inhibition of bacterial growth incubated for 24 hrs by well-plate method
Staphylococcus aureus [11] = assay: Antibacterial activity against Staphylococcus aureus MTCC 121 assessed as zone of inhibition incubated for 24 hrs by well-plate method
Staphylococcus aureus [12] = assay: Antibacterial activity against Staphylococcus aureus MTCC 121 assessed as inhibition of bacterial growth incubated for 24 hrs by well-plate method
Helicobacter pylori = assay: Antibacterial activity against Helicobacter pylori ATCC43504 assessed as inhibition of bacterial growth incubated for 72 hrs by micro-dilution broth assay
Staphylococcus aureus [13] = assay: Antibacterial activity against Staphylococcus aureus assessed as zone of inhibition incubated for 24 hrs by well-diffusion method
Micrococcus luteus = assay: Antibacterial activity against Micrococcus luteus assessed as zone of inhibition incubated for 24 hrs by well-diffusion method
Escherichia coli [14] = assay: Antibacterial activity against Escherichia coli assessed as zone of inhibition incubated for 24 hrs by well-diffusion method
Pseudomonas aeruginosa [15] = assay: Antibacterial activity against Pseudomonas aeruginosa assessed as zone of inhibition incubated for 24 hrs by well-diffusion method
Pseudomonas aeruginosa [16] = assay: Antibacterial activity against Pseudomonas aeruginosa assessed as inhibition of bacterial growth incubated for 24 hrs by broth microdilution assay
Bacillus subtilis [17] = assay: Antibacterial activity against Bacillus subtilis ATCC 10876 assessed as zone of inhibition incubated for 24 hrs by paper disk method
Staphylococcus aureus [18] = assay: Antibacterial activity against Staphylococcus aureus ATCC-29213 assessed as inhibition of bacterial growth incubated for 16 hrs by agar-well diffusion assay
Bacillus subtilis [19] = assay: Antibacterial activity against Bacillus subtilis assessed as zone of inhibition incubated for 24 hrs by agar diffusion assay
Proteus vulgaris = assay: Antibacterial activity against Proteus vulgaris assessed as zone of inhibition incubated for 24 hrs by agar diffusion assay
Staphylococcus aureus [20] = assay: Antibacterial activity against Staphylococcus aureus assessed as zone of inhibition incubated for 24 hrs by agar diffusion assay

Compound: COc1ccc(CNC(=O)COc2cc(=O)oc3ccccc23)c(OC)c1
- inhibition zone (IZ) (Staphylococcus aureus [1]): 10 mm
- inhibition zone (IZ) (Escherichia coli [2]): 13 mm
- inhibition zone (IZ) (Pseudomonas aeruginosa [3]): 12 mm

Compound: CC[N+](CC)(CC)CCCCCCCCNCc1cn(Cc2cc(=O)oc3c(O)c4c(cc23)CCC(C)(C)O4)nn1.[Br-]
- inhibition zone (IZ) (Escherichia coli [4]): 2 mm
- inhibition zone (IZ) (Staphylococcus aureus [5]): 2 mm

Compound: COc1cccc(/C=C/C(=O)/C=C/c2ccc(COc3cn(CCOc4cc(=O)oc5ccccc45)nn3)cc2OC)c1
- inhibition zone (IZ) (Pseudomonas aeruginosa [6]): 7 mm
- inhibition zone (IZ) (Staphylococcus aureus [7]): 8 mm

Compound: O=c1cc(OCc2cn(CN3CCN(c4ccccc4F)CC3)c(=S)s2)c2ccccc2o1
- MIC (Escherichia coli [8]): 12.5 µg/mL (≈ 25.8 µM)

Compound: CN[C@@H]1[C@H](O[C@H]2[C@H](O[C@H]3[C@H](O)[C@@H](O)[C@H](N=C(N)N)[C@@H](O)[C@@H]3N=C(N)N)O[C@@H](C)[C@]2(O)C=O)O[C@@H](CO)[C@H](O)[C@H]1O [STREPTOMYCIN]
- inhibition zone (IZ) (Escherichia coli [9]): 22 mm
- MIC (Escherichia coli [10]): 12.5 µg/mL (≈ 21.5 µM)
- inhibition zone (IZ) (Staphylococcus aureus [11]): 20 mm
- MIC (Staphylococcus aureus [12]): 12.5 µg/mL (≈ 21.5 µM)

Compound: CC[N+](CC)(CC)CCCCCCCCNCc1cn(Cc2cc(=O)oc3c(OC)c4c(cc23)CCC(C)(C)O4)nn1.[Br-]
- inhibition zone (IZ) (Escherichia coli [4]): 2 mm
- inhibition zone (IZ) (Staphylococcus aureus [5]): 0 mm

Compound: Cc1cc(=O)oc2cc(O)ccc12 [HYMECROMONE]
- MIC (Helicobacter pylori): 50 µg/mL (≈ 284 µM)

Compound: COc1cc(COc2cn(CCOc3cc(=O)oc4ccccc34)nn2)ccc1/C=C/C(=O)/C=C/c1cc(OC)c(OC)c(OC)c1
- inhibition zone (IZ) (Staphylococcus aureus [7]): 7 mm

Compound: O=c1cc(OCc2cn(CN3CCN(c4ccc(F)cc4)CC3)c(=S)s2)c2ccccc2o1
- MIC (Escherichia coli [8]): 12.5 µg/mL (≈ 25.8 µM)

Compound: CO/N=C(\C(=O)N[C@@H]1C(=O)N2C(C(=O)O)=C(COC(C)=O)CS[C@H]12)c1csc(N)n1 [CEFOTAXIME]
- inhibition zone (IZ) (Staphylococcus aureus [13]): 11 mm
- inhibition zone (IZ) (Micrococcus luteus): 11 mm
- inhibition zone (IZ) (Escherichia coli [14]): 11 mm
- inhibition zone (IZ) (Pseudomonas aeruginosa [15]): 11 mm

Compound: CO/N=C(\C(=O)N[C@@H]1C(=O)N2C(C(=O)O)=C(COC(N)=O)CS[C@H]12)c1ccco1 [CEFUROXIME]
- MIC (Pseudomonas aeruginosa [16]): 98 µg/mL (≈ 231 µM)

Compound: COc1cc(COc2cn(CCOc3cc(=O)oc4ccccc34)nn2)ccc1/C=C/C(=O)/C=C/c1ccc(OC)c(OC)c1
- inhibition zone (IZ) (Pseudomonas aeruginosa [6]): 7 mm
- inhibition zone (IZ) (Staphylococcus aureus [7]): 8 mm

Compound: NCC[C@H](O)C(=O)N[C@@H]1C[C@H](N)[C@@H](O[C@H]2O[C@H](CN)[C@@H](O)[C@H](O)[C@H]2O)[C@H](O)[C@H]1O[C@H]1O[C@H](CO)[C@@H](O)[C@H](N)[C@H]1O [AMIKACIN]
- inhibition zone (IZ) (Bacillus subtilis [17]): 18 mm
- inhibition zone (IZ) (Staphylococcus aureus [1]): 20 mm
- inhibition zone (IZ) (Escherichia coli [2]): 17 mm
- inhibition zone (IZ) (Pseudomonas aeruginosa [3]): 17 mm

Compound: CC(C)(C)NC(=O)c1c(-c2ccccc2)nc(SCc2cc(=O)oc3ccc4ccccc4c23)[nH]c1=O
- MIC (Staphylococcus aureus [18]): 2.5 µg/mL (≈ 4.89 µM)

Compound: O=C(/C=C/c1cc(/N=N\c2ccc(Cl)cc2)ccc1O)c1cc2ccccc2oc1=O
- inhibition zone (IZ) (Bacillus subtilis [19]): >17 mm
- inhibition zone (IZ) (Proteus vulgaris): >17 mm
- inhibition zone (IZ) (Staphylococcus aureus [20]): >17 mm
